Like-named read-outs stand apart in the source and are kept apart here.
What was measured:
[1] = biological target: T1, Fatty Acid Amide Hydrolase (FAAH) (Rattus norvegicus, UniProt P97612); experiment: biochemical
T1 sequence (P97612 1-579): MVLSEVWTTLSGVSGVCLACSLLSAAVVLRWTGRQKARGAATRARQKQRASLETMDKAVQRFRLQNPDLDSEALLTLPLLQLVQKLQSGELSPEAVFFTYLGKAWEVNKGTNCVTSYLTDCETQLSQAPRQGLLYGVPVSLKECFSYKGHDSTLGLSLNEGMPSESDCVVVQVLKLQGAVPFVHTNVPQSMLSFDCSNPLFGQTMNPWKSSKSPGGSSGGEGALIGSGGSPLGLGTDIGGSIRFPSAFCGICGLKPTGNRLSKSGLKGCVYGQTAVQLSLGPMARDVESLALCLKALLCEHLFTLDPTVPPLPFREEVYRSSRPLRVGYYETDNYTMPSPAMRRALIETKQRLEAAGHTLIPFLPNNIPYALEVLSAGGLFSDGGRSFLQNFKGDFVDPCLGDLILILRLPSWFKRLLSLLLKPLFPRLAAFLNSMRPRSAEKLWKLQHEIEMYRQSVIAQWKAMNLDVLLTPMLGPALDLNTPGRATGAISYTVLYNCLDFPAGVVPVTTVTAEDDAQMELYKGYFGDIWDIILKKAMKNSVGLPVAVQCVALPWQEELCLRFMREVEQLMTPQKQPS
Method: Assay for Fatty Acid Amide Hydrolase (FAAH)
The effect of compounds on the enzymatic hydrolysis of [^14C]anandamide (6 μM) was studied using membranes prepared from rat brain incubated with increasing concentrations of compounds in 50 mM Tris-HCl, pH 9, for 30 minutes at 37° C. (Di Marzo et al., 2002). [^14C]ethanolamine produced from [^14C]anandamide hydrolysis was measured counting the scintillation of the aqueous phase after extraction of the incubation mixture with 2 volumes of CHCl3/CH3OH (2:1 by volume). […]

CB2 = biological target: T2, CB2 (Rattus norvegicus, UniProt Q9QZN9); experiment: Preliminary selection with rat spleen membranes; format: binding; settings: rat brain and spleen membranes, read-out: CB2 (n.a. class, IC50 in preliminary selection)
T2 construct: from tissue; host or cells: rat spleen membranes
T2 sequence (Q9QZN9 1-360): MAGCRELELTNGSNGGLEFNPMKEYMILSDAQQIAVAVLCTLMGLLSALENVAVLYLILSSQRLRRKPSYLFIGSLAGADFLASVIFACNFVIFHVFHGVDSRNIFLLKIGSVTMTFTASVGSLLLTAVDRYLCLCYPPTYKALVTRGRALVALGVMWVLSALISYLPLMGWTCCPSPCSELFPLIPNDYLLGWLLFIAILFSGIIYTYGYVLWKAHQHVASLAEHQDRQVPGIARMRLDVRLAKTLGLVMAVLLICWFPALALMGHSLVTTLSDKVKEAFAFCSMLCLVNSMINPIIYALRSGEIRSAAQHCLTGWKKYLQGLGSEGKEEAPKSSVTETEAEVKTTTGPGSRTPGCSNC

[2] = biological target: human recombinant CB2 receptor (Homo sapiens, UniProt P34972); experiment: CB2 binding, [3H]CP55,940 displacement, membranes from transfected COS cells; design: purchased Perkin-Elmer; host or cells: COS cells; settings: recombinant human CB2, COS cell membranes
Chain of human recombinant CB2 receptor (P34972 whole entry): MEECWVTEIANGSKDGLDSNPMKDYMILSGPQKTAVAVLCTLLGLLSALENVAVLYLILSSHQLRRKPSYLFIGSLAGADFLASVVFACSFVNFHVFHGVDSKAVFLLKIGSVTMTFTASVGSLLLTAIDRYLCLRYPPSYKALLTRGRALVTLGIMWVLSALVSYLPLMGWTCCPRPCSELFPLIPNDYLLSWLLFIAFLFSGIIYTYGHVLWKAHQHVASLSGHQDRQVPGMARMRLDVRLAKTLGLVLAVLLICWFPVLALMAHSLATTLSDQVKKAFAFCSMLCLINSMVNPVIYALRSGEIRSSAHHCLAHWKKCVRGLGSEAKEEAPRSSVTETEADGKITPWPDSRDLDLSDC

## CCCCCCc1ccc(OCCCCCC(=O)Nc2ccc(O)cc2)cc1O
other
  melting point: 128.4 °C

## CCCCCCc1ccc(O)cc1OCCCCCC(=O)Nc1ccc(O)cc1
other
  melting point: 106 °C

## CCCCCCCCCCCCCCCc1cccc(OCCCCCC(=O)NC2CC2)c1 [Compound 16, 6-(3-Pentadecyl-phenoxy)-hexanoic acid cyclopropylamide]
[1]
  IC50: > 10 µM
other
  melting point: 67.8 °C

## CCCCCCCCCCCCCCCc1cccc(OCCCCCCCCCCC(=O)NCCO)c1 [Compound 18, 11-(3-Pentadecyl-phenoxy)-undecanoic acid (2-hydroxy-ethyl)-amide]
other
  melting point: 83 to 85 °C

## CCCCCCCCCCCCCCCc1cccc(OCCCCCCCCCCC(=O)NC2CC2)c1 [Compound 19, 11-(3-Pentadecyl-phenoxy)-undecanoic acid cyclopropylamide]
other
  melting point: 82 °C

## CCCCCCCCCCCCCCCc1cccc(OCCCCCCCCCCC(=O)Nc2ccc(O)cc2)c1 [Compound 20, 11-(3-Pentadecyl-phenoxy)-undecanoic acid (4-hydroxy-phenyl)-amide]
other
  melting point: 107 °C

## CCCCCc1cc(O)cc(OCCCCCC(=O)NCCO)c1 [Compound 21, 6-(3-Hydroxy-5-pentyl-phenoxy)-hexanoic acid (2-hydroxy-ethyl)-amide]
[1]
  IC50: > 10 µM
CB2
  IC50: > 10 µM

## CCCCCc1cc(O)cc(OCCCCCC(=O)NC2CC2)c1 [Compound 22, 6-(3-Hydroxy-5-pentyl-phenoxy)-hexanoic acid cyclopropylamide]
[1]
  IC50: > 10 µM
[2]
  Ki: 0.96 µM

## CCCCCc1cc(O)cc(OCCCCCC(=O)Nc2ccc(O)cc2)c1 [Compound 23, 6-(3-Hydroxy-5-pentyl-phenoxy)-hexanoic acid (4-hydroxy-phenyl)amide]
[1]
  IC50: > 10 µM
other
  melting point: 69.2 °C

## CCCCCc1cc(O)cc(OCCCCCCCCCCCCCCCC(=O)NC2CC2)c1 [Compound 28, 16-(3-Hydroxy-5-pentyl-phenoxy)-hexadecanoic acid cyclopropylamide]
CB2
  IC50: > 10 µM
other
  melting point: 91 °C

## CCCCCc1cc(O)cc(OCCCCCCCCCCCCCCCC(=O)Nc2ccc(O)cc2)c1 [Compound 29, 16-(3-Hydroxy-5-pentyl-phenoxy)-hexadecanoic acid (4-hydroxy-phenyl)-amide]
CB2
  IC50: > 10 µM
other
  melting point: 89.5 °C

## O=C(CCCCCOc1cccc(O)c1)NCCO [Compound 30, 6-(3-Hydroxy-phenoxy)-hexanoic acid (2-hydroxy-ethyl)-amide]
[1]
  IC50: > 10 µM

## O=C(CCCCCOc1cccc(O)c1)NC1CC1 [Compound 31, 6-(3-Hydroxy-phenoxy)-hexanoic acid cyclopropylamide]
[1]
  IC50: > 10 µM

## O=C(CCCCCCCCCCOc1cccc(O)c1)NC1CC1 [Compound 34, 11-(3-Hydroxy-phenoxy)-undecanoic acid cyclopropilamide]
[1]
  IC50: > 10 µM
[2]
  Ki: 5.4 µM

## O=C(CCCCCCCCCCCCCCCOc1cccc(O)c1)NCCO [Compound 36, 16-(3-Hydroxy-phenoxy)-hexadecanoic acid (2-hydroxy-ethyl)-amide]
CB2
  IC50: > 10 µM
other
  melting point: 94.5 °C

## CCCCCCc1ccc(OCCCCCC(=O)NCCO)cc1O [Compound 39, 6-(3-Hydroxy-4-hexyl-phenoxy)-hexanoic acid (2-hydroxy-ethyl)-amide]
[1]
  IC50: > 10 µM
other
  melting point: 71.2 °C
[2]
  Ki: 6.43 µM

## CCCCCCc1ccc(OCCCCCCCCCCCCCCCC(=O)Nc2ccc(O)cc2)cc1O [Compound 47, 16-(3-Hydroxy-4-hexyl-phenoxy)-hexadecanoic acid (4-hydroxy-phenyl)-amide]
CB2
  IC50: > 10 µM
other
  melting point: 133.2 °C

## CCCCCCc1ccc(O)cc1OCCCCCC(=O)NCCO [Compound 48, 6-(2-Hexyl-5-hydroxy-phenoxy)-hexanoic acid (2-hydroxy-ethyl)-amide]
[1]; rat brain membranes, read-out: FAAH (n.a. class)
  IC50: > 10 µM

## CCCCCCc1ccc(O)cc1OCCCCCC(=O)NC1CC1 [Compound 49, 6-(2-Hexyl-5-hydroxy-phenoxy)-hexanoic acid cyclopropylamide]
[1]
  IC50: > 10 µM
[2]
  Ki: 3.57 µM

Reference: US20090043129A1 (priority 2005, published 2009)
